Tests used:
[1] = test system: DRGs, motor neurons, and Schwann cells; conditions: 72 h
Protocol: It is contemplated that delivery of immunosuppressive agents function within a favorable therapeutic window. PNs are comprised of three major nervous system cell types, motor neurons, sensory neurons, and Schwann cells. […] FIG. 1B illustrates data regarding the toxicity of tacrolimus to DRGs, motor neurons, and Schwann cells. FIG. 1C illustrates data regarding the toxicity of prednisolone to DRGs, motor neurons, and Schwann cells.
Cells (DRGs, motor neurons, and Schwann cells) were cultured for 72 hours in various concentration of the immunosuppressive drugs and viability was evaluated using the Alamar blue viability assay. ISV's were diluted into media using a maximum of 1% dimethylsulfoxide (DMSO).
FIG. 2B illustrates data regarding the viability of DRGs, motor neurons, and Schwann cells cultured in about 10 μM tracrolimus with differing concentrations of prednisolone.

immune cells = conditions: cited from earlier work

Row | Compound | Measures in vitro tolerated concentrations on PN cells [1] [µM] | dose tolerated by the cells (up to) [1] | effective dose for inhibiting activation and proliferation of immune cells (immune cells) | in vitro effective concentration on immune cells (immune cells) [nM]
1 | C[C@]12C=CC(=O)C=C1CC[C@@H]1[C@@H]2[C@@H](O)C[C@@]2(C)[C@H]1CC[C@]2(O)C(=O)CO [Prednisolone, prednisolone] | 200 | about 200 μM | greater than 240 μM | 240
2 | C=CC[C@@H]1/C=C(\C)C[C@H](C)C[C@H](OC)[C@H]2O[C@@](O)(C(=O)C(=O)N3CCCC[C@H]3C(=O)O[C@H](/C(C)=C/[C@@H]3CC[C@@H](O)[C@H](OC)C3)[C@H](C)[C@@H](O)CC1=O)[C@H](C)C[C@@H]2OC [Tacrolimus, tacrolimus] | 10 to 25 | 10 to 25 µM | 50 to 100 µM | 0.5 to 1.0

From patent US12599561B2, “Localized immunosuppression of allografts for peripheral nerve repair” (UNIVERSITY OF WYOMING, priority 2018, dated 2026)
